According to ChEMBL document CHEMBL1201862, “PubChem BioAssay data set” (2004):
Calls of active or inactive are those of the source.

Key:
[1] = biological target: T1, Low molecular weight phosphotyrosine protein phosphatase (Homo sapiens, UniProt P24666); assay: inhibition of LMPTP-A enzymatic activity – biochemical, OMFP substrate, fluorescence intensity, set 2, dose response (AID 743307); format: functional
T1 sequence (P24666 whole entry): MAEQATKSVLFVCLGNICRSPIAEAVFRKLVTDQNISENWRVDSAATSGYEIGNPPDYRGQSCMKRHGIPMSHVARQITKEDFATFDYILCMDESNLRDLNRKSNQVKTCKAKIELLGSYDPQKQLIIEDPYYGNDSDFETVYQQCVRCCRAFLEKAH

[2] = biological target: T1, Low molecular weight phosphotyrosine protein phosphatase; assay: inhibition of human LMPTP enzyme activity – biochemical, absorbance, pNPP substrate, LMPTP-A isoform, set 2, orthogonal assay, dose response (AID 743308); format: functional
[3] = biological target: T2, Ubiquitin-conjugating enzyme E2 N (Homo sapiens, UniProt P61088); format: functional;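 also: Dose-response confirmation in a TR-FRET assay detecting UBC13-driven polyubiquitin chain formation, inhibition measured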
T2 sequence (P61088 whole entry): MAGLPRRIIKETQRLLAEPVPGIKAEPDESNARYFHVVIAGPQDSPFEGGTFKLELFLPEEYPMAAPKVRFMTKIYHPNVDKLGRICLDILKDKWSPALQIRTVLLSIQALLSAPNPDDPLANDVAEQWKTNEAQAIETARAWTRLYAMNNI

[4] = biological target: RNA-editing ligase 1, mitochondrial (Trypanosoma brucei brucei, UniProt P86926); assay: inhibition of trypanosome RNA editing ligase – biochemical, fluorescence, Trypanosoma brucei, dose response (AID 1117295); format: functional
[5] = biological target: 1-phosphatidylinositol 4,5-bisphosphate phosphodiesterase beta-3 (Homo sapiens, UniProt Q01970); assay: Fluorescence-based biochemical high throughput dose response assay to identify inhibitors of phospholipase C isozymes (PLC-B3).
[6] = biological target: 1-phosphatidylinositol 4,5-bisphosphate phosphodiesterase gamma-1 (Homo sapiens, UniProt P19174); assay: Counterscreen for inhibitors of phospholipase C isozymes (PLC-B3): Fluorescence-based biochemical high throughput dose response assay to identify inhibitors of phospholipase C isozymes (PLC-gamma1).
[7] = biological target: Galanin receptor type 3 (Homo sapiens, UniProt O60755); assay: Fluorescence-based cell-based primary high throughput dose response assay to identify antagonists of the Galanin Receptor 3 (GalR3).; format: functional
[8] = biological target: T3, COUP transcription factor 2 (Homo sapiens, UniProt P24468); assay: Luminescence-based cell-based high throughput dose response assay to identify inhibitors of COUP-TFII (NR2F2).; format: functional;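 also: HEK293 cells transiently cotransfected with COUP-TFII expression vector and reporter; luciferase reporter luminescence driven by COUP-TFII from the pX2-168 reporter plasmid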
T3 sequence (P24468 whole entry): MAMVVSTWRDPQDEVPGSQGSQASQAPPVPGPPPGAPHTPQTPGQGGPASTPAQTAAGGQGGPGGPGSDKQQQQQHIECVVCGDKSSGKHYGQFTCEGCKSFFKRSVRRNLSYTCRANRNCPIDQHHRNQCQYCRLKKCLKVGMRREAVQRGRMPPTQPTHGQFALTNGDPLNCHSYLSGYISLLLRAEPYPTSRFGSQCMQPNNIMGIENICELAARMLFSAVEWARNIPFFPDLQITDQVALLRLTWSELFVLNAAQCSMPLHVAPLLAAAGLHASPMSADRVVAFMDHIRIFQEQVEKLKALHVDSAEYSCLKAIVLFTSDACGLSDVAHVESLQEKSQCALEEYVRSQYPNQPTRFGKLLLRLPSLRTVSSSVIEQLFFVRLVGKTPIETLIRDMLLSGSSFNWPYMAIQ

[9] = cells; format: functional, cell-based; settings: HEK-CNG
[10] = viability loss in Vero cells – cytotoxicity control for Vif-APOBEC3G degradation inhibitor project, dose response (AID 1117358); format: functional; settings: Vero
[11] = viability inhibitors of stage V gametocytes – luminescence, dose response (AID 1117278); format: functional, cell-based;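 also: gametocytes exposed to compound for 24 hours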
[12] = viability loss in human Jurkat cells – cell-based, luminescence, cytotoxicity control for P. falciparum gametocyte viability project, dose response (AID 1117277); format: functional;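 also: potency reflects loss of cellular ATP meaning fewer viable cells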
[13] = Dd2 parasite growth inhibition in erythrocytes – SYBR Green, dry powder samples, set 9, dose response (AID 1159568); format: functional, cell-based
[14] = biological target: Endoplasmic reticulum aminopeptidase 1 (Homo sapiens, UniProt Q9NZ08); assay: inhibition of human ERAP1 enzyme activity – biochemical, cherry-pick, set 2, plate reader, dose response (AID 743314)
[15] = general mammalian cell viability loss – activator set, cherry-pick, cytotoxicity control for miR-122 modulator project, dose response (AID 720690); format: functional, cell-based;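 also: HEK293T human cells scored for general mammalian cytotoxicity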
[16] = activation of miR-122 Renilla sensor silencing – cell-based, Huh7 psiCHECK-miR122, Renilla luciferase, cherry-picked, dose response (AID 651956); format: functional;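 also: huh7 hepatoma cells stably carrying a psiCHECK-2 miR-122 sensor plasmid; renilla luciferase signal reporting endogenous miR-122 activity after 48 h compound exposure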
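For EC50 in this document: target is galanin receptor GalR3 read with a cAMP biosensor in HEK293 cells.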

Chain of Galanin receptor type 3 (O60755 whole entry): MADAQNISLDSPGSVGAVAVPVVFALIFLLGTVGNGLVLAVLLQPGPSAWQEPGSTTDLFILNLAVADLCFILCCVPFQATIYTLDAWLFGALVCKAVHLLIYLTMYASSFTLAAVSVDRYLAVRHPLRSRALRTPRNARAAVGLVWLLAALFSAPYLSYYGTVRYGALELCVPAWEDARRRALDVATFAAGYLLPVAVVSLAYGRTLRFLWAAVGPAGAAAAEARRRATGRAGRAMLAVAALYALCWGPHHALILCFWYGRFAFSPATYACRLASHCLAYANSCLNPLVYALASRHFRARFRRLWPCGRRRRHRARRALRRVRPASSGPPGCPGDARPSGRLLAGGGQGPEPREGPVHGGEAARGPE
Chain of RNA-editing ligase 1, mitochondrial (P86926 whole entry): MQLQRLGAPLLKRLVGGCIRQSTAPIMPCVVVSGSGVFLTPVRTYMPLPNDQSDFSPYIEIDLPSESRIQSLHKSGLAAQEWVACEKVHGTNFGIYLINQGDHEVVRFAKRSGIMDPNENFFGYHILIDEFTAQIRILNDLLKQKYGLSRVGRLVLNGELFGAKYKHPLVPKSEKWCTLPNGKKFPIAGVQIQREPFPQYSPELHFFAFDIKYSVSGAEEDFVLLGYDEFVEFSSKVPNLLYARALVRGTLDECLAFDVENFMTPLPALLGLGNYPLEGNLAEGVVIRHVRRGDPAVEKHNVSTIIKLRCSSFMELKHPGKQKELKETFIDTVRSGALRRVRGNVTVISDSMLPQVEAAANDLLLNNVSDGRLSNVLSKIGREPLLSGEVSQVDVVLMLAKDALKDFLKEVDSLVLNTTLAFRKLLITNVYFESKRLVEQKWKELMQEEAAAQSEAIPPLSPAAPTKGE
Chain of 1-phosphatidylinositol 4,5-bisphosphate phosphodiesterase beta-3 (Q01970 whole entry): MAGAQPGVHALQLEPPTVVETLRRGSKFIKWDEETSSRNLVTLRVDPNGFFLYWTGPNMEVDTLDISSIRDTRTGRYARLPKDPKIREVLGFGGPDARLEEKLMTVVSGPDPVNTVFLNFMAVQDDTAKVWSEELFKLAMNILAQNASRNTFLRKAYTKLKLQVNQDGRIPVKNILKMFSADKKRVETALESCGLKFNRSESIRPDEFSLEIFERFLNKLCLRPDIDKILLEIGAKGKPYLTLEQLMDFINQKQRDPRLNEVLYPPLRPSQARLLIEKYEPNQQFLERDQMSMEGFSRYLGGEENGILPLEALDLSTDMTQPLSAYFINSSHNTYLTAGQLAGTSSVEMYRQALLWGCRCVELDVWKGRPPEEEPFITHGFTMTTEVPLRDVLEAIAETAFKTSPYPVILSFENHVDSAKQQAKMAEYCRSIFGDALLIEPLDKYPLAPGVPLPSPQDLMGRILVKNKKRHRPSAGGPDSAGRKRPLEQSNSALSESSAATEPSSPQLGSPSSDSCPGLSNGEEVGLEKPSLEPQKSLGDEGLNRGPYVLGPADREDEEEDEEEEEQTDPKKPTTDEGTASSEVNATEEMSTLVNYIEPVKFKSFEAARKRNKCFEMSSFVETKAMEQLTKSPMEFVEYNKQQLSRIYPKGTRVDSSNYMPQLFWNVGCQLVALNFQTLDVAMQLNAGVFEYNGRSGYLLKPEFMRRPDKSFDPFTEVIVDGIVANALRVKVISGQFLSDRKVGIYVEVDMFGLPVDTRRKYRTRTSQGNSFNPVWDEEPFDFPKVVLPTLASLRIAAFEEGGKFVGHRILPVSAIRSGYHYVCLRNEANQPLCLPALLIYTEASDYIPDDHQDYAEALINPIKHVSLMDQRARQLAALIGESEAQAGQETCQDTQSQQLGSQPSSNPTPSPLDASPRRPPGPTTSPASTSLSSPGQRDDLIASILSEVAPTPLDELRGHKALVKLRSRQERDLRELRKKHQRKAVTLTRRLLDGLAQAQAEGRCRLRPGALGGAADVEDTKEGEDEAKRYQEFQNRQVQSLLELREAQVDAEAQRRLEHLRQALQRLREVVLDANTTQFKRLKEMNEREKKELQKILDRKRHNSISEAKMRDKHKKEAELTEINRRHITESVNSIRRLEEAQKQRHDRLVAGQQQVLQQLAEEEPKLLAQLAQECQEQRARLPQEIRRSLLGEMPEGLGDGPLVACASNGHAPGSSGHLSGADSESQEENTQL
Chain of Endoplasmic reticulum aminopeptidase 1 (Q9NZ08 whole entry): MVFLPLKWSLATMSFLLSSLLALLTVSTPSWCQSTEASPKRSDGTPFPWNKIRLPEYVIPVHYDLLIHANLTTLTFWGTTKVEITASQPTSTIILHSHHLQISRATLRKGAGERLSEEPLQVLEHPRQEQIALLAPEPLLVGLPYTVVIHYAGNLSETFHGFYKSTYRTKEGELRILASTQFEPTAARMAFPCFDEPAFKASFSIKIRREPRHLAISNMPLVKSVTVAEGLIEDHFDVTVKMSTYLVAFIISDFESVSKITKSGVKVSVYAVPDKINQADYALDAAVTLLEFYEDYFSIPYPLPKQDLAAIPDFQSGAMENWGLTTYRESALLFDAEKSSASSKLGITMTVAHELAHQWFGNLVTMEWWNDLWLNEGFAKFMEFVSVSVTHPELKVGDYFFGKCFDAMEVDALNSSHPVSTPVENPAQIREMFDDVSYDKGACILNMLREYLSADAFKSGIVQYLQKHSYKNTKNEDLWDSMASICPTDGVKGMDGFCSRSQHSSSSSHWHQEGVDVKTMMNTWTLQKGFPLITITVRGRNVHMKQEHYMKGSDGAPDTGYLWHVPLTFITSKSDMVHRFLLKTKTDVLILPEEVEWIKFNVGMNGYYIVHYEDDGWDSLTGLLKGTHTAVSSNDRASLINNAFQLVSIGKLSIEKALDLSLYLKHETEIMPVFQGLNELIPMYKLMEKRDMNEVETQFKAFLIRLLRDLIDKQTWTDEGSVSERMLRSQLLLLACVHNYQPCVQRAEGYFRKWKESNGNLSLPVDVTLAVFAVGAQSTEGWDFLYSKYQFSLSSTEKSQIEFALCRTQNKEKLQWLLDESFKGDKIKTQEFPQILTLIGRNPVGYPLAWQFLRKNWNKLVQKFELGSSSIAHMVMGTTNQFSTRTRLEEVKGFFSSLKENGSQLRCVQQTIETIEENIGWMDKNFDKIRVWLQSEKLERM
Chain of 1-phosphatidylinositol 4,5-bisphosphate phosphodiesterase gamma-1 (P19174 whole entry): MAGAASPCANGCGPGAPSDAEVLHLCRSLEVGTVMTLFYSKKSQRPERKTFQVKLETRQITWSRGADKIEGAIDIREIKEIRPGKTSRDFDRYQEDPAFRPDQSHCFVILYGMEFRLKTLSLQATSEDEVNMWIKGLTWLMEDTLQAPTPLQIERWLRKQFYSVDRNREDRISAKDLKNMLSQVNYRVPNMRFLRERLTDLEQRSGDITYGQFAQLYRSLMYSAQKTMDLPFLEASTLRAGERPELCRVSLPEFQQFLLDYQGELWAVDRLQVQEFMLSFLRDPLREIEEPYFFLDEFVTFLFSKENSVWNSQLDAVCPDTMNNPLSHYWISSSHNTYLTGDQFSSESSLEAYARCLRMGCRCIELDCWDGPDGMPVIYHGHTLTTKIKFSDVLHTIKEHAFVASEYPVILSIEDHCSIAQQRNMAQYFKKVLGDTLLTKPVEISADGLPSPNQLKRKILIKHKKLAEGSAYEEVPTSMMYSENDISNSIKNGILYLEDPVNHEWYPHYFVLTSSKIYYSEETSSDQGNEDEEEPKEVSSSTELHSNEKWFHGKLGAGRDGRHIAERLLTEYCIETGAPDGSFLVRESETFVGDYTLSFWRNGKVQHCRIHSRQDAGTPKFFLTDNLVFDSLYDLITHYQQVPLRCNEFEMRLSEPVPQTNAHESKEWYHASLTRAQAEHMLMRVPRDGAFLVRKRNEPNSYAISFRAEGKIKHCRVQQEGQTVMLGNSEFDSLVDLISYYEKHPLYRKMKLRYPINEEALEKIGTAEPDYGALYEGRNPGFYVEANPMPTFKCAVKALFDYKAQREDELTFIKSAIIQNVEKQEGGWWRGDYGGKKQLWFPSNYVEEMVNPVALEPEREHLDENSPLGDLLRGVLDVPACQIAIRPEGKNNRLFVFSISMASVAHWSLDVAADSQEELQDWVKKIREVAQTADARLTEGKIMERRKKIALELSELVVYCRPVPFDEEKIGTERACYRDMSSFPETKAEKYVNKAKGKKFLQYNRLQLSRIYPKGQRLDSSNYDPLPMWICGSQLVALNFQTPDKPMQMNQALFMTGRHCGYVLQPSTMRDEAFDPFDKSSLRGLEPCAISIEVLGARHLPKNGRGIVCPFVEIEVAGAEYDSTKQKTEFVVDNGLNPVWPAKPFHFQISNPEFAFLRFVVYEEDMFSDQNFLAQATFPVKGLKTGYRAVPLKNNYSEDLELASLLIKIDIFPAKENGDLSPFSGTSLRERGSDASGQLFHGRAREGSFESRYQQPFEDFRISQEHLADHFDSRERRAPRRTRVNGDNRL

Which IC50 [1] does the source give for Clc1ccc(-c2cc(NCCCN3CCCCC3)c3ccccc3n2)cc1 here?
The IC50 was 1.54 µM (active).

And the IC50 [2]?
Its IC50 is 2.88 µM (active).

For CC[C@@H](C)[C@@H]1CN([C@@H](C)CN2CCC[C@H]2CN2C(N)=NC[C@H]2C(C)C)C(=N)N1CCc1ccc(Cl)c(Cl)c1, which IC50 [3] is on record?
The IC50 was > 20 µM (inactive).

And the IC50 [4]?
Its IC50 is > 96.6 µM (inactive).

For COc1cc(C(=O)Nc2ccc3c(c2)C(=O)N(CCC(=O)O)C3=O)cc(OC)c1OC, which IC50 [5] is on record?
Its IC50 is > 122 µM (inactive).

What about the IC50 [6] of the same compound?
The IC50 was > 122 µM (inactive).

Which IC50 [7] does the source give for Cc1ccccc1Cn1c(C)nc2ccccc21 here?
Its IC50 is 0.331 µM (active).

And the IC50 [8]?
Its IC50 is 13.2 µM (inactive).

And the EC50 [9]?
Its EC50 is > 29.9 µM (inactive).

For Cc1ccc(C)c(S(=O)(=O)Nc2ccc3scnc3c2)c1, which CC50 [10] is on record?
The CC50 was > 40 µM (active).

With O=C(Nc1ccccn1)C1CCN(S(=O)(=O)c2cccc3nonc23)CC1 as the compound, how does the IC50 [11] read?
The IC50 was > 109 µM (inactive).

What about the IC50 [12] of the same compound?
The IC50 was > 83.3 µM (inactive).

Which AC50 [13] does the source give for O=C(O)C[C@H]1CC[C@@H]2[C@H](COC[C@@H](O)CN2S(=O)(=O)c2ccc(Oc3ccccc3)cc2)O1 here?
The AC50 was 31.1 µM (active).

With OCc1cc(C(O)CNCCCCCCOCCCCc2ccccc2)ccc1O (centres undefined) [SALMETEROL XINAFOATE] as the compound, how does the IC50 [7] read?
Its IC50 is > 29.9 µM (inactive).

And the EC50 [9]?
The EC50 was > 29.9 µM (inactive).

With COC(=O)[C@H]1[C@H](CO)[C@H]2Cn3c(ccc(/C=C/c4ccccc4)c3=O)[C@@H]1N2C(=O)C1CCC1 as the compound, how does the AC50 [14] read?
Its AC50 is 4.93 µM (active).

Which AC50 [15] does the source give for CN1C(=O)c2cc(NC(=O)c3ccc(C(F)(F)F)cc3)ccc2OC[C@H]2O[C@H](CC(=O)NCc3ccc4c(c3)OCO4)CC[C@@H]21 here?
Its AC50 is 22 µM (active).

And the AC50 [13]?
The AC50 was 12.6 µM (active).

What about the AC50 [16] of the same compound?
Its AC50 is 8.04 µM (active).
